Results from PMC7558026, “Exploring and applying the substrate promiscuity of a C-glycosyltransferase in the chemo-enzymatic synthesis of bioactive C-glycosides” (Nature Communications, 2020).
Values joined by “and” are separate entries in the source; they are usually repeats but may differ in a detail not shown here. Equal values may be shown once.

What was measured:
[1] = target: T1, SGLT2 (Homo sapiens, UniProt P31639); test: 1-NBDG uptake in HEK293 cells stably expressing SGLT2; type: cell-based; conditions: triplicate; for inhibition at 10 µM: HEK293, compound at 10 μM, read-out: SGLT2 inhibitory rates; for SGLT2 inhibitory rates: compound at 10 μM, 10 µM
T1 construct: Human full-length SGLT2 cDNA (NM_003041.3) was synthesized; expressed in transfected cells; host or cells: HEK293, retroviral transduction with pMSCVpuro-SGLT2, puromycin selected
T1 sequence (P31639 1-672): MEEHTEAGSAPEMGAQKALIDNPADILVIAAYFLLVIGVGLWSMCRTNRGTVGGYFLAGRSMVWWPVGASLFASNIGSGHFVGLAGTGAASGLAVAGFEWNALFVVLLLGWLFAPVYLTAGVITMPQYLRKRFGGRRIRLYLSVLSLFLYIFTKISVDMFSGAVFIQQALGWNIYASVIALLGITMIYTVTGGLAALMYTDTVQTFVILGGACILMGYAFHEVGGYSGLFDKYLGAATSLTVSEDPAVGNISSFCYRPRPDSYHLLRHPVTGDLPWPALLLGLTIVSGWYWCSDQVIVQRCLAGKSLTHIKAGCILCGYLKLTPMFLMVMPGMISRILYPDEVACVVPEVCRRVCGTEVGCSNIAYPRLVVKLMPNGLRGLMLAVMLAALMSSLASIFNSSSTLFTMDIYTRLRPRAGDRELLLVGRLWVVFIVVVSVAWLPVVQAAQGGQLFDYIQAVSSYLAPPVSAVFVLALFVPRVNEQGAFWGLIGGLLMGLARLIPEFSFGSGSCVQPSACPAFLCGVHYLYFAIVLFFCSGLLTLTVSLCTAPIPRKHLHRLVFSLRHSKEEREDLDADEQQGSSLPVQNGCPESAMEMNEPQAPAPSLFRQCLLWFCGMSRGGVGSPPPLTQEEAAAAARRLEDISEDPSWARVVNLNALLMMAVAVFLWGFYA

[2] = target: AbCGT (Aloe vera, UniProt A0A7G9P699); test: Glycosyltransferase activity assay, purified AbCGT (wild type) with aglycon acceptors and UDP-Glc; type: biochemical, Aloe barbadensis; conditions: Reaction-1 to -3; for conversion rates, O,N,S-glycosylation / conversion rates, di-C-glycosylation / conversion rates, mono-C-glycosylation: aglycon acceptor with UDP-Glc, pH 7.4, 30 °C, up to 12 h; for conversion rates, Purified Enzyme: fig. 2b, purified AbCGT, redesigned substrates
[3] = tested on: E. coli-AbCGT; test: Glycosylation by whole-cell biocatalyst E. coli-AbCGT; type: cell-based; conditions: fig. 2c, 30 °C, M9 medium, 12 h, 0.25 mM acceptor; Reaction-1 to -3
Method: The induced cells of E. coli-AbCGT were harvested by centrifugation at 3000 × g for 5 min at 4 °C and washed with ddH2O. Pellets were resuspended by M9 minimal medium containing 2% glucose to appropriate cell density (OD600 = 3.0). Prepared whole-cell biocatalyst of E. coli-AbCGT (500 μL) was then added to 2-mL tubes containing various acceptors at a concentration of 0.25 mM. The mixture was incubated at 30 °C for 12 h with shaking (200 rpm). The reactions were analyzed using GT activity assays as described above. For quantification, three parallel assays were routinely carried out.

[4] = tested on: E. coli-AbCGT; test: Optimization of cell density and substrate concentration in whole-cell biocatalysis; type: cell-based; conditions: replicates 1-3; for Conversion rate of 46: substrate 150 mg L^‒1; for conversion rate: OD600 = 13.0
Method: To study the optimal cell density, the reaction was performed in various cell densities with OD600 values in the range of 1.0−15.0 and a substrate concentration of 150 mg L^‒1. […] For quantification, three parallel assays were routinely carried out.

[5] = target: T2, SGLT1 (Homo sapiens, UniProt P13866); test: 1-NBDG uptake in HEK293 cells stably expressing SGLT1; type: cell-based; conditions: HEK293, compound at 10 μM; triplicate; read-out: SGLT1 inhibitory rates
T2 construct: The full-length SGLT1 cDNA was obtained by PCR with forward primer; expressed in transfected cells
T2 sequence (P13866 1-664): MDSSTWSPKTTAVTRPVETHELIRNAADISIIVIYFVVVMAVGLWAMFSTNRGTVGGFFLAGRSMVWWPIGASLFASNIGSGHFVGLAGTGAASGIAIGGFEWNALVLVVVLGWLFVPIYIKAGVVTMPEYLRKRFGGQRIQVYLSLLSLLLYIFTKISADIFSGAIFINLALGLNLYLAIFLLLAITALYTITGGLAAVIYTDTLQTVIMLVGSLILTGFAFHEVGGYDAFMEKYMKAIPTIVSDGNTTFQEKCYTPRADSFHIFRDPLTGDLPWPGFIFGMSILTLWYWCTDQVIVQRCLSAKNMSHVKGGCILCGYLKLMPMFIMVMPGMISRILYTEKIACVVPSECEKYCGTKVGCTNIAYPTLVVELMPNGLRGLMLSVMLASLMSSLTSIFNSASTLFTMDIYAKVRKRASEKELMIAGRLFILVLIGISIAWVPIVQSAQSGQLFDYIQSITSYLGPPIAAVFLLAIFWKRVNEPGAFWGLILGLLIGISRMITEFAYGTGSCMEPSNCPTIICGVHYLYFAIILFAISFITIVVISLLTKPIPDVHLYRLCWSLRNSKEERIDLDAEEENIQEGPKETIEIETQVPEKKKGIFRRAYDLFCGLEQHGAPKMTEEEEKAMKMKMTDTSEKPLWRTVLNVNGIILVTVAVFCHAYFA

Chain of AbCGT (A0A7G9P699 entry or part of it): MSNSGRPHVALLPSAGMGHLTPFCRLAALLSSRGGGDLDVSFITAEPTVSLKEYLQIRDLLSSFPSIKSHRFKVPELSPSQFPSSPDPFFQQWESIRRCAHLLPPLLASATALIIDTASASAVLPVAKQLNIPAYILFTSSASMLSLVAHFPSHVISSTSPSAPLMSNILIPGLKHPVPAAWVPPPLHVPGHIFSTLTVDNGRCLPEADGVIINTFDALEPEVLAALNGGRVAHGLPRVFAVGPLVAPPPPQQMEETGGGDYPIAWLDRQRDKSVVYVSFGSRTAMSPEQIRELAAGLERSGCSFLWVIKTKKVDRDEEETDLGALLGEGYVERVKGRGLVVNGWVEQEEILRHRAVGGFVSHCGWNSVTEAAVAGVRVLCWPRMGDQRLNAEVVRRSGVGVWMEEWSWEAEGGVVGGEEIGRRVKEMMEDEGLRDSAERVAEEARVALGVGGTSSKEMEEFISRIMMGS

| Structure (SMILES) | inhibition at 10 µM [1] [%] | conversion rates, Purified Enzyme [2] | conversion rates, Whole cells [3] | other results |
| --- | --- | --- | --- | --- |
| COc1ccc(Cc2c(O)cc(O)cc2O)cc1OC [Compound 20] | 0.2 |  |  | conversion rates, O,N,S-glycosylation [2]: 0%; conversion rates, di-C-glycosylation [2]: 0%; conversion rates, mono-C-glycosylation [2]: 100% |
| COc1ccc(CCc2ccc(O)cc2O)cc1 [Compound 21] | 1.8 |  |  | conversion rates, O,N,S-glycosylation [2]: 0%; conversion rates, di-C-glycosylation [2]: 0%; conversion rates, mono-C-glycosylation [2]: 100% |
| CCc1ccc(O)cc1O [Compound 27] |  | 5.7% and 8.5% and 6.8% | 0% |  |
| Oc1ccc(Cc2ccccc2)c(O)c1 [Compound 28] |  | 55.6% and 72.2% and 58.2% | 0.5% and 0.7% and 0.3% |  |
| Oc1ccc(/N=N/c2nccs2)c(O)c1 [Compound 29] |  | 35.9% and 40% and 39.9% | 3.7% and 5.4% and 5.9% |  |
| CCc1c(O)cc(O)cc1O [Compound 30] |  | 100% | 0% |  |
| Oc1cc(O)c(CC2CC2)c(O)c1 [Compound 34] |  | 100% | 11.3% and 11.9% and 15.8% |  |
| Oc1cc(O)c(CC2CCC2)c(O)c1 [Compound 35] |  | 100% | 41.1% and 39.5% and 30.5% |  |
| Oc1cc(O)c(CC2CCCC2)c(O)c1 [Compound 36] |  | 100% | 53.8% and 69.1% and 57.1% |  |
| Oc1cc(O)c(CC2CCCCC2)c(O)c1 [Compound 37] |  | 100% | 100% |  |
| Oc1cc(O)c(Cc2ccccc2)c(O)c1 [Compound 38, 1-benzylbenzene-2,4,6-triol] | 4.2 | 100% | 44.3% and 46.1% and 53.7% |  |
| Oc1cc(O)c(CCc2ccccc2)c(O)c1 [Compound 39, 1-phenethylbenzene-2,4,6-triol] | 0.2 | 100% | 7.2% and 13.4% and 9.4% |  |
| Oc1cc(O)c(CCCCc2ccccc2)c(O)c1 [Compound 40] |  | 100% | 100% |  |
| Oc1cc(O)c(Cc2ccsc2)c(O)c1 [Compound 42] | 2.7 | 100% | 73% and 84.5% and 79.6% |  |
| Oc1cc(O)c(CCc2c[nH]c3ccccc23)c(O)c1 [Compound 43] | 12.9 | 100% | 87.2% and 96% and 92.6% |  |
| Cc1ccc(Cc2c(O)cc(O)cc2O)cc1 [Compound 46] | 10.8 | 100% | 89% and 80.2% and 82.3% | Conversion rate of 46 ([4]; OD600nm 1.0): 2% and 4% (2×); Conversion rate of 46 ([4]; OD600nm 3.0): 13% and 11% and 15%; Conversion rate of 46 ([4]; OD600nm 5.0): 22% (2×) and 19%; Conversion rate of 46 ([4]; OD600nm 7.0): 26% and 28% and 32%; Conversion rate of 46 ([4]; OD600nm 9.0): 33% (2×) and 29%; Conversion rate of 46 ([4]; OD600nm 11.0): 38% and 34% and 33%; Conversion rate of 46 ([4]; OD600nm 13.0): 38%; Conversion rate of 46 ([4]; OD600nm 15.0): 43% and 35% (2×); conversion rate ([4]; concentration of 46 57.5 mg/L): 100%; conversion rate ([4]; concentration of 46 115 mg/L): 100%; conversion rate ([4]; concentration of 46 172.5 mg/L): 100%; conversion rate ([4]; concentration of 46 230 mg/L): 100%; conversion rate ([4]; concentration of 46 287.5 mg/L): 89% and 92% and 93%; conversion rate ([4]; concentration of 46 345 mg/L): 27.5% and 20% and 29.8%; conversion rate ([4]; concentration of 46 460 mg/L): 13.6% and 13.9% and 14%; conversion rate ([4]; concentration of 46 575 mg/L): 8.8% and 8.5% and 8% |
| CCCCc1ccc(Cc2c(O)cc(O)cc2O)cc1 [Compound 47] | 0.2 | 100% | 2.7% and 3.2% and 3.1% |  |
| CCCCc1ccc(Cc2c(O)cc(O)c(C3OC(CO)C(O)C(O)C3O)c2O)cc1 (stereo not drawn) [Compound 47a] | > 96 |  |  | inhibition at 10 µM [5]: 17.1%; SGLT2 inhibitory rates [1]: 100% |
| Oc1cc(O)c(Cc2ccc(F)cc2)c(O)c1 [Compound 48] | 0.2 | 100% | 86% and 92.2% and 88.8% |  |
| Oc1cc(O)c(Cc2ccc(Cl)cc2)c(O)c1 [Compound 49] | 0.2 | 100% | 0.8% and 0.9% |  |
| OCC1OC(c2c(O)cc(O)c(Cc3ccc(Cl)cc3)c2O)C(O)C(O)C1O (stereo not drawn) [Compound 49a] | > 96 |  |  | inhibition at 10 µM [5]: 34.7%; SGLT2 inhibitory rates [1]: 98.5% |
| Oc1cc(O)c(Cc2ccc(-c3ccccc3)cc2)c(O)c1 [Compound 50] | 0.2 | 100% | 0% |  |
| OCC1OC(c2c(O)cc(O)c(Cc3ccc(-c4ccccc4)cc3)c2O)C(O)C(O)C1O (stereo not drawn) [Compound 50a] | > 96 |  |  | inhibition at 10 µM [5]: 27.1%; SGLT2 inhibitory rates [1]: 96.3% |
| Oc1ccc(CCc2c(O)cc(O)cc2O)cc1 [Compound 51] | 3.3 | 100% | 87.9% and 92.2% and 95.8% |  |
| Oc1cc(O)c(CCc2ccc3c(c2)CCO3)c(O)c1 [Compound 52] | 0.8 | 100% | 84.1% and 72.7% and 80.3% |  |
| Oc1cc(O)c(CCc2ccc(F)cc2)c(O)c1 [Compound 53] | 0.2 | 100% | 66.8% and 61% and 58.3% |  |
| Oc1cc(O)c(CCc2ccc(Cl)cc2)c(O)c1 [Compound 54] | 0.2 | 100% | 39.8% and 44.7% and 47.4% |  |
